Laboratory results as given in the NIST ThermoML archive (doi:10.1007/s10765-008-0410-4).

Experiment: xn = mol fraction of the nth substance listed
Conditions: Liquid, Vibrating tube method

CCCCn1cc[n+](C)c1.F[B-](F)(F)F [1-butyl-3-methylimidazolium tetrafluoroborate] + CCO
Conditions | mass density [kg/m3]
348.15 K, 20740 kPa, x1 = 0.9152 | 1174.39
348.15 K, 20870 kPa, x1 = 1 | 1185.63
348.15 K, 21630 kPa, x1 = 0.3147 | 1023.15
348.15 K, 25140 kPa, x1 = 0.9152 | 1176.67
348.15 K, 25380 kPa, x1 = 0.0701 | 858.25
348.15 K, 25410 kPa, x1 = 0.7452 | 1149.62
348.15 K, 25430 kPa, x1 = 0.5384 | 1104.11
348.15 K, 25850 kPa, x1 = 1 | 1188.16
348.15 K, 26120 kPa, x1 = 0.3147 | 1025.95
348.15 K, 29980 kPa, x1 = 0.9152 | 1179.1
348.15 K, 30070 kPa, x1 = 0.7452 | 1152.07
348.15 K, 30110 kPa, x1 = 1 | 1190.19
348.15 K, 30220 kPa, x1 = 0.0701 | 861.8
348.15 K, 30550 kPa, x1 = 0.3147 | 1028.55
348.15 K, 30670 kPa, x1 = 0.5384 | 1107
348.15 K, 35070 kPa, x1 = 0.9152 | 1181.59
348.15 K, 35110 kPa, x1 = 1 | 1192.88
348.15 K, 35140 kPa, x1 = 0.7452 | 1154.63
348.15 K, 35170 kPa, x1 = 0.0701 | 865.16
348.15 K, 35620 kPa, x1 = 0.5384 | 1109.59
348.15 K, 35630 kPa, x1 = 0.3147 | 1031.33
348.15 K, 39560 kPa, x1 = 0.5384 | 1111.54
348.15 K, 39610 kPa, x1 = 1 | 1194.77
348.15 K, 39740 kPa, x1 = 0.9152 | 1183.8
348.15 K, 39940 kPa, x1 = 0.7452 | 1156.96
348.15 K, 40010 kPa, x1 = 0.3147 | 1033.56
348.15 K, 40030 kPa, x1 = 0.0701 | 868.18
373.15 K, 470 kPa, x1 = 1 | 1157.24
373.15 K, 510 kPa, x1 = 0.0701 | 812.28
373.15 K, 520 kPa, x1 = 0.7452 | 1117.1
373.15 K, 750 kPa, x1 = 0.5384 | 1069.65
373.15 K, 780 kPa, x1 = 0.9152 | 1145.53
373.15 K, 810 kPa, x1 = 0.3147 | 987.83
373.15 K, 5060 kPa, x1 = 0.5384 | 1072.77
373.15 K, 5090 kPa, x1 = 0.7452 | 1120.2
373.15 K, 5140 kPa, x1 = 0.9152 | 1148.26
373.15 K, 5350 kPa, x1 = 1 | 1160.25
373.15 K, 5790 kPa, x1 = 0.0701 | 818.18
373.15 K, 5820 kPa, x1 = 0.3147 | 992.08
373.15 K, 10070 kPa, x1 = 0.5384 | 1076.3
373.15 K, 10080 kPa, x1 = 1 | 1163.09
373.15 K, 10570 kPa, x1 = 0.9152 | 1151.58
373.15 K, 10610 kPa, x1 = 0.7452 | 1123.82
373.15 K, 10950 kPa, x1 = 0.3147 | 996.25
373.15 K, 11040 kPa, x1 = 0.0701 | 823.77
373.15 K, 15080 kPa, x1 = 0.9152 | 1154.27
373.15 K, 15130 kPa, x1 = 0.0701 | 827.92
373.15 K, 15340 kPa, x1 = 0.5384 | 1079.9
373.15 K, 15710 kPa, x1 = 1 | 1166.39
373.15 K, 15730 kPa, x1 = 0.3147 | 999.95
373.15 K, 15840 kPa, x1 = 0.7452 | 1127.11
373.15 K, 19860 kPa, x1 = 0.3147 | 1003.02
373.15 K, 20090 kPa, x1 = 0.7452 | 1129.7
373.15 K, 20540 kPa, x1 = 0.9152 | 1157.45
373.15 K, 20610 kPa, x1 = 0.5384 | 1083.37
373.15 K, 20970 kPa, x1 = 1 | 1169.38
373.15 K, 21220 kPa, x1 = 0.0701 | 833.79
373.15 K, 24670 kPa, x1 = 0.9152 | 1159.79
373.15 K, 25130 kPa, x1 = 0.0701 | 837.37
373.15 K, 25460 kPa, x1 = 0.7452 | 1132.84
373.15 K, 25820 kPa, x1 = 1 | 1172.07
373.15 K, 25930 kPa, x1 = 0.5384 | 1086.76
373.15 K, 25990 kPa, x1 = 0.3147 | 1007.35
373.15 K, 29760 kPa, x1 = 0.9152 | 1162.61
373.15 K, 30010 kPa, x1 = 0.5384 | 1089.27
373.15 K, 30070 kPa, x1 = 0.7452 | 1135.43
373.15 K, 30120 kPa, x1 = 1 | 1174.39
373.15 K, 30260 kPa, x1 = 0.0701 | 841.81
373.15 K, 30670 kPa, x1 = 0.3147 | 1010.47
373.15 K, 35030 kPa, x1 = 0.5384 | 1092.26
373.15 K, 35180 kPa, x1 = 0.7452 | 1138.19
373.15 K, 35220 kPa, x1 = 0.3147 | 1013.34
373.15 K, 35520 kPa, x1 = 0.0701 | 846.1
373.15 K, 35530 kPa, x1 = 1 | 1177.22
373.15 K, 36740 kPa, x1 = 0.9152 | 1166.35
373.15 K, 39820 kPa, x1 = 0.3147 | 1016.1
373.15 K, 39820 kPa, x1 = 1 | 1179.41
373.15 K, 39840 kPa, x1 = 0.0701 | 849.4
373.15 K, 39870 kPa, x1 = 0.9152 | 1167.99
373.15 K, 39920 kPa, x1 = 0.7452 | 1140.63
373.15 K, 39940 kPa, x1 = 0.5384 | 1095.08
398.15 K, 860 kPa, x1 = 0.9152 | 1128.45
398.15 K, 870 kPa, x1 = 1 | 1141.05
398.15 K, 920 kPa, x1 = 0.5384 | 1049.06
398.15 K, 940 kPa, x1 = 0.7452 | 1098.62
398.15 K, 960 kPa, x1 = 0.3147 | 966.26
398.15 K, 1010 kPa, x1 = 0.0701 | 788.85
398.15 K, 5060 kPa, x1 = 0.5384 | 1052.44
398.15 K, 5120 kPa, x1 = 0.7452 | 1101.74
398.15 K, 5750 kPa, x1 = 0.0701 | 795.42
398.15 K, 5840 kPa, x1 = 0.9152 | 1131.83
398.15 K, 6350 kPa, x1 = 0.3147 | 971.33
398.15 K, 6670 kPa, x1 = 1 | 1144.53
398.15 K, 9630 kPa, x1 = 0.9152 | 1134.36
398.15 K, 10070 kPa, x1 = 0.7452 | 1105.35
398.15 K, 10150 kPa, x1 = 0.0701 | 801.14
398.15 K, 10420 kPa, x1 = 0.5384 | 1056.68
398.15 K, 10490 kPa, x1 = 1 | 1147.07
398.15 K, 10930 kPa, x1 = 0.3147 | 975.46
398.15 K, 15030 kPa, x1 = 0.5384 | 1060.22
398.15 K, 15080 kPa, x1 = 0.7452 | 1108.88
398.15 K, 15110 kPa, x1 = 0.0701 | 807.16
398.15 K, 15620 kPa, x1 = 0.3147 | 979.51
398.15 K, 15730 kPa, x1 = 1 | 1150.32
398.15 K, 16470 kPa, x1 = 0.9152 | 1138.81
398.15 K, 19970 kPa, x1 = 0.5384 | 1063.89
398.15 K, 20040 kPa, x1 = 0.9152 | 1141.07
398.15 K, 20150 kPa, x1 = 0.3147 | 983.26
398.15 K, 20640 kPa, x1 = 0.7452 | 1112.68
398.15 K, 20740 kPa, x1 = 0.0701 | 813.42
398.15 K, 20980 kPa, x1 = 1 | 1153.78
398.15 K, 24980 kPa, x1 = 0.5384 | 1067.49
398.15 K, 25120 kPa, x1 = 0.9152 | 1144.22
398.15 K, 25130 kPa, x1 = 0.0701 | 817.89
398.15 K, 25140 kPa, x1 = 1 | 1156.3
398.15 K, 25170 kPa, x1 = 0.3147 | 987.21
398.15 K, 25370 kPa, x1 = 0.7452 | 1115.8
398.15 K, 30030 kPa, x1 = 0.5384 | 1070.98
398.15 K, 30280 kPa, x1 = 0.7452 | 1118.94
398.15 K, 30410 kPa, x1 = 0.3147 | 991.12
398.15 K, 30450 kPa, x1 = 0.9152 | 1147.45
398.15 K, 30850 kPa, x1 = 0.0701 | 823.16
398.15 K, 30890 kPa, x1 = 1 | 1159.52
398.15 K, 35070 kPa, x1 = 0.5384 | 1074.35
398.15 K, 35140 kPa, x1 = 0.7452 | 1121.93
398.15 K, 35160 kPa, x1 = 0.3147 | 994.46
398.15 K, 35740 kPa, x1 = 0.9152 | 1150.56
398.15 K, 35810 kPa, x1 = 1 | 1162.4
398.15 K, 35860 kPa, x1 = 0.0701 | 827.28
398.15 K, 39560 kPa, x1 = 1 | 1164.38
398.15 K, 39850 kPa, x1 = 0.3147 | 997.59
398.15 K, 39860 kPa, x1 = 0.9152 | 1152.93
398.15 K, 39920 kPa, x1 = 0.7452 | 1124.78
398.15 K, 39940 kPa, x1 = 0.5384 | 1077.48
398.15 K, 39990 kPa, x1 = 0.0701 | 830.32
